# Key:
# MDA-MB-231 = assay: Cytotoxicity against human MDA-MB-231 cells assessed as cell growth inhibition at 30 uM by SRB assay relative to control; type: functional; conditions: read-out: GI
# ASPC1 = assay: Cytotoxicity against human ASPC1 cells assessed as cell growth inhibition at 30 uM by SRB assay relative to control; type: functional; conditions: read-out: GI
# K562 = assay: Cytotoxicity against human K562 cells assessed as cell growth inhibition at 30 uM by MTT assay relative to control; type: functional; conditions: read-out: GI
# [1] = Cytotoxicity against human L02 cells assessed as cell growth inhibition at 30 uM by SRB assay relative to control; type: cell-based; conditions: read-out: GI
# Vibrio parahaemolyticus = assay: Antibacterial activity against Vibrio parahaemolyticus assessed as reduction in bacterial growth; type: functional; conditions: time 24 hrs
# Mycolicibacterium phlei = assay: Antibacterial activity against Mycobacterium phlei assessed as reduction in bacterial growth; type: functional; conditions: time 24 hrs
# Escherichia coli = assay: Antibacterial activity against Escherichia coli assessed as reduction in bacterial growth; type: functional; conditions: time 24 hrs
# Proteus sp. = assay: Antibacterial activity against Proteus sp. assessed as reduction in bacterial growth; type: functional; conditions: Proteus sp. (in: enterobacteria); time 24 hrs
# Bacillus cereus = assay: Antibacterial activity against Bacillus cereus assessed as reduction in bacterial growth; type: functional; conditions: time 24 hrs
# Staphylococcus aureus [2] = assay: Antibacterial activity against methicillin-resistant Staphylococcus aureus assessed as reduction in bacterial growth; type: functional; conditions: time 24 hrs
# Bacillus subtilis = assay: Antibacterial activity against Bacillus subtilis assessed as reduction in bacterial growth; type: functional; conditions: time 24 hrs
# Staphylococcus aureus [3] = assay: Potency index, ratio of ciprofloxacin MIC to test compound MIC for methicillin-resistant Staphylococcus aureus; type: functional
Compound,inhibition of growth at 30 µM (MDA-MB-231),inhibition of growth at 30 µM (ASPC1),inhibition of growth at 30 µM (K562),inhibition at 30 µM [1],MIC (Vibrio parahaemolyticus),MIC (Mycolicibacterium phlei),MIC (Escherichia coli),MIC (Proteus sp.),MIC (Bacillus cereus),MIC (Staphylococcus aureus [2]),MIC (Bacillus subtilis),Ratio (Staphylococcus aureus [3])
COC1=C(c2ccc(OC)cc2)C(=O)C(SC)=C(c2ccc(OC)cc2)C1=O,< 50%,< 50%,< 50%,< 50%,,,,,,,,
COC(=O)CSC1=C(c2ccc(OC)cc2)C(=O)C(OC)=C(c2ccc(OC)cc2)C1=O,< 50%,< 50%,< 50%,< 50%,,,,,,,,
COC1=C(c2ccc(OC)cc2)C(=O)C(N)=C(c2ccc(OC)cc2)C1=O,< 50%,< 50%,< 50%,< 50%,,,,,,,,
COc1ccc(-c2c(OC)c(O)c(-c3ccc(OC)cc3)c3sc(-c4nccs4)nc23)cc1,< 50%,< 50%,< 50%,< 50%,6.2 µM,6.2 µM,3.1 µM,3.1 µM,1.5 µM,> 50 µM,3.1 µM,
COC(=O)CCSC1=C(c2ccc(OC)cc2)C(=O)C(OC)=C(c2ccc(OC)cc2)C1=O,< 50%,< 50%,< 50%,< 50%,> 50 µM,> 50 µM,> 50 µM,12 µM,> 50 µM,6.2 µM,12 µM,8
O=C(O)c1cn(C2CC2)c2cc(N3CCNCC3)c(F)cc2c1=O [CIPROFLOXACIN],,,,,0.39 µM,0.78 µM,0.78 µM,1.5 µM,1.5 µM,50 µM,0.39 µM,
